The text below walks through data of ChEMBL document CHEMBL1151776, “Identification of aquaporin 4 inhibitors using in vitro and in silico methods” (Bioorg Med Chem, 2009).

What all share (type): cell-based
Test [1] has as its system Oocyte. The test can be described thus: Inhibition of human aquaporin 4 M23 isoform expressed in Xenopus laevis oocytes at 20 uM.
Test [2] is described as follows: (§1) Inhibition of human aquaporin 4 M23 isoform expressed in Xenopus laevis oocytes. Particulars: oocyte.
In test [3] the test system is Oocyte. Described as §1.

In the test on Oocyte [1], `O=C(Nc1nccs1)c1cccnc1` registered an inhibition of 30%.
The same measure, in the same setting: as for `COc1ccccc1OCC(O)CO` (centres undefined), the figure is 34%.
The same measure, in the same setting: in the case of `CC(C)NC[C@H](O)COc1cccc2ccccc12` it was 26%.
In the test on Oocyte [1], `CN(C)CCc1c[nH]c2ccc(Cn3cncn3)cc12` [RIZATRIPTAN] yielded an inhibition of 52%. Moreover, in test [2], inhibition was half-maximal at 2.9 µM (IC50). Further, the Imax with Oocyte [3] worked out at 54%.
In turn, `O=C(Nc1ccccc1)c1cccnc1` yielded an inhibition with Oocyte [1] of 26%.
Consider `CNS(=O)(=O)Cc1ccc2[nH]cc(CCN(C)C)c2c1` [SUMATRIPTAN], for which the inhibition in the test with Oocyte [1] was found to be 54%. Further, the midpoint of inhibition in test [2], the IC50, lay at 11 µM. Besides, the Imax with Oocyte [3] was found to be 52%.
Consider `CCCC(C)C1(CC)C(=O)NC(=O)NC1=O` (centres undefined), for which the inhibition in the test on Oocyte [1] was found to be 9%.
On the same count and under the same terms, in the case of `CN1CCc2cccc3c2[C@H]1Cc1ccc(O)c(O)c1-3` it was 40%; in that of `NC(=O)NCCC[C@H](N)C(=O)O`, 0%.
In turn, `O=C(Nc1nncs1)c1cccnc1` yielded an inhibition with Oocyte [1] of 67%. The compound further showed a 50% inhibitory concentration (IC50) in test [2] of 3.1 µM. This compound also gave an Imax in the test with Oocyte [3] of 73%.
Compound `OCC(O)COCc1ccccc1` (centres undefined) gave an inhibition with Oocyte [1] of 11%.
The same measure, in the same setting: in the case of `N[C@@H]1CONC1=O` it was 3%.
Same read-out and setting: in the case of `NS(=O)(=O)c1cc(Cl)sc1Cl` it was 11%.
Still for that read-out and setting: as for `NS(=O)(=O)c1ccc(Cl)s1`, the figure is 18%.
As to `Oc1cnc(Nc2nc3ccccc3o2)[nH]1`, the inhibition in the test with Oocyte [1] amounted to 44%.
On the same count and under the same terms, as for `CC/C(=C(\c1ccccc1)c1ccc(OCCN(C)C)cc1)c1ccccc1`, the figure is 71%; as for `O=S(=O)(Cc1ccccc1)Nc1nccs1`, 45%; as for `NC(=O)c1nc[nH]c1C(N)=O`, 23%.
